This test addresses wild-type human cardiac sodium channel, hNav1.5 (Homo sapiens, UniProt Q14524). The test can be described thus: Late INa screening assay (automated whole cell patch clamp, PatchXpress). The format is cell-based. As to conditions: HEK293 cells expressing hNav1.5, late INa generated with 10 μM Tefluthrin (or 50 nM ATX II); for inhibition at 10 µM: compound at 10 μM, read-out: LateINa_10 uM (percent block of late INa); for inhibition at 1 µM: compound at 1 μM, read-out: LateINa_1 uM (percent block of late INa). The gist of the method:
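Late sodium current through wild-type human hNav1.5 stably expressed in HEK293 cells (no beta subunits) was recorded by automated whole-cell patch clamp on a PatchXpress 7000A at 24-27° C. Late INa was induced with 10 μM Tefluthrin or 50 nM ATX II. Cells were stepped from −120 mV to −20 mV for 250 ms at 0.1 Hz, and percent block was normalized to current in Na-free extracellular solution.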

Each structure is given as a SMILES string.

Chain of wild-type human cardiac sodium channel, hNav1.5 (Q14524 whole entry): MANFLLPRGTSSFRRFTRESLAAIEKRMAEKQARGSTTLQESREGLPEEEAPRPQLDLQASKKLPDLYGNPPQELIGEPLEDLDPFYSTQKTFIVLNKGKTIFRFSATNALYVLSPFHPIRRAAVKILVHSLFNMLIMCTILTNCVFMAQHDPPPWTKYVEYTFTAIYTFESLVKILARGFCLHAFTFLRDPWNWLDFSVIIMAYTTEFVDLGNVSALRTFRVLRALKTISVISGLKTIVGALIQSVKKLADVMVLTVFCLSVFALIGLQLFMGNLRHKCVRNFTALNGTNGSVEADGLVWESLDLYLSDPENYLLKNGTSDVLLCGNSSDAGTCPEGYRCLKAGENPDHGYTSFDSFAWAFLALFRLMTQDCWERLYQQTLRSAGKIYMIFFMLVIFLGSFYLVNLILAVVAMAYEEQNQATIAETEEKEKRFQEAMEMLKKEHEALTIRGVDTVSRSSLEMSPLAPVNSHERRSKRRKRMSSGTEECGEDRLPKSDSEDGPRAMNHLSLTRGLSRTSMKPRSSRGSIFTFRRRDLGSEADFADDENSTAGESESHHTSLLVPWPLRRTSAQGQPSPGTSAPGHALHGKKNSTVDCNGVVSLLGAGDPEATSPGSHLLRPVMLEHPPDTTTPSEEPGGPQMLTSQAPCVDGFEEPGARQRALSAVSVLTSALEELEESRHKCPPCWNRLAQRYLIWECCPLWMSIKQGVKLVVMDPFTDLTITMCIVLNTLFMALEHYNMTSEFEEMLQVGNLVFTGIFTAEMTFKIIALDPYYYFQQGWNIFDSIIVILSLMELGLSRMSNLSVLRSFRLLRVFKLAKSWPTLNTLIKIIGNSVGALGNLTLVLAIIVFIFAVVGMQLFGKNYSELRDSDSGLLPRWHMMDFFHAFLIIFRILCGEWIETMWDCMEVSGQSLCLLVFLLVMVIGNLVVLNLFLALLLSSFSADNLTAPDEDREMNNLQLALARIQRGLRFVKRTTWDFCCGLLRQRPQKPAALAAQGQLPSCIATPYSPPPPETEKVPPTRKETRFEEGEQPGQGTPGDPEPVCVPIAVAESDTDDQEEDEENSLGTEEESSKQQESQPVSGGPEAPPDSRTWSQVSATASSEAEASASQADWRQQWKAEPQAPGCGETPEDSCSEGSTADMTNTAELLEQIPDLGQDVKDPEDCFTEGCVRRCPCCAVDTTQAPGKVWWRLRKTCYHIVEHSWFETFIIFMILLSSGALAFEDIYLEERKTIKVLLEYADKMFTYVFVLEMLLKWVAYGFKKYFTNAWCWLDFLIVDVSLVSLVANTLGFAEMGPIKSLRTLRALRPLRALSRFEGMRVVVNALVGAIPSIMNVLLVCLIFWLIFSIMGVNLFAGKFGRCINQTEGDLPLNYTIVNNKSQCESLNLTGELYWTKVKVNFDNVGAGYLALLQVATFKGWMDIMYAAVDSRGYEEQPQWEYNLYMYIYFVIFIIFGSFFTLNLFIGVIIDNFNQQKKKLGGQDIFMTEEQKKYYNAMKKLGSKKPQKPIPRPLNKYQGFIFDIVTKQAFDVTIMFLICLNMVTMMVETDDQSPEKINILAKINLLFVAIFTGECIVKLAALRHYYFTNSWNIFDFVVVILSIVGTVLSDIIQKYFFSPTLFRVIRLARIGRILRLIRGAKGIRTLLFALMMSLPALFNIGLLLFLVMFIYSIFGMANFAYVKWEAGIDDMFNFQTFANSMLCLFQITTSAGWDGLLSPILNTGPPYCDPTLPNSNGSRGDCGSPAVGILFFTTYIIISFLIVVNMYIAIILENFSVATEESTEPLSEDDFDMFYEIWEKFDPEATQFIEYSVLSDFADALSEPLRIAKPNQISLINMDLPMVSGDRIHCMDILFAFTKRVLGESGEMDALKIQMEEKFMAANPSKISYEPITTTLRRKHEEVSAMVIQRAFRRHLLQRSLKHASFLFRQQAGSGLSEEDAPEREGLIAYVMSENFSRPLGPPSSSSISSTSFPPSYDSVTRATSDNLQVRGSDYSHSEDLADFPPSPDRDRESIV

`CN(C)Cc1cc(-c2ccc3nnc(C(F)(F)F)n3c2)ccc1OC(F)(F)F` [BHN-83, N,N-dimethyl-1-{2-(trifluoromethoxy)-5-[3-(trifluoromethyl)[1,2,4]triazolo[4,3-a]pyridin-6-yl]phenyl}methanamine]: the inhibition at 10 µM was 29.8%.

Turning to `FC(F)(F)Oc1ccc(-c2ccc3nnc(-c4ccc(OC(F)(F)F)cc4)n3c2)cc1` [BHN-55, 3,6-bis[4-(trifluoromethoxy)phenyl][1,2,4]triazolo[4,3-a]pyridine], the inhibition at 1 µM came to 89.1% and the inhibition at 10 µM is 90.7%.

Consider `FC(F)(F)COc1ccc(-c2ccc3nnnn3c2)cn1` [BHN-219, 6-[6-(2,2,2-trifluoroethoxy)pyridin-3-yl]tetrazolo[1,5-a]pyridine], for which the inhibition at 1 µM came to 36.9%. On the same count and under the same terms, the value for `FC(F)(F)Oc1ccc(-c2ccc3nnc(C(F)(F)COCc4cccnc4)n3c2)cc1` [BHN-139, 3-[1,1-difluoro-2-(pyridin-3-ylmethoxy)ethyl]-6-[4-(trifluoromethoxy)phenyl][1,2,4]triazolo[4,3-a]pyridine] was 15.4%; that for `Cc1cccc(C)c1OCCOC(F)(F)c1nnc2ccc(-c3ccc(OC(F)(F)F)cc3)cn12` [BHN-285, 3-{[2-(2,6-dimethylphenoxy)ethoxy](difluoro)methyl}-6-[4-(trifluoromethoxy)phenyl][1,2,4]triazolo[4,3-a]pyridine] was 68%. The same measure, in the same setting: with `COCC(F)(F)c1nnc2ccc(-c3ccc(OC(F)(F)F)c(F)c3)cn12` [BHN-232, 3-(1,1-difluoro-2-methoxyethyl)-6-[3-fluoro-4-(trifluoromethoxy)phenyl][1,2,4]triazolo[4,3-a]pyridine] the figure was 45.3%. As to `FC(F)(F)c1nnc2cnc(-c3ccc(Oc4ccccc4)cc3)cn12` [BHN-16, 6-(4-phenoxyphenyl)-3-(trifluoromethyl)[1,2,4]triazolo[4,3-a]pyrazine], the inhibition at 10 µM amounted to 54.3%. For `FC(F)(F)Oc1ccc(-c2ccc3c(-c4ccccc4)nc(C(F)(F)F)n3c2)cc1` [BHN-34, 1-phenyl-6-[4-(trifluoromethoxy)phenyl]-3-(trifluoromethyl)imidazo[1,5-a]pyridine], the inhibition at 10 µM is 33.4%. Consider `FC(F)(F)Cc1nnc2ccc(-c3ccc(Oc4ccccc4)cc3)nn12` [BHN-31, 6-(4-phenoxyphenyl)-3-(2,2,2-trifluoroethyl)[1,2,4]triazolo[4,3-b]pyridazine], for which the inhibition at 1 µM was 57.5% and the inhibition at 10 µM amounted to 82.6%. For the compound `FC(F)(F)Oc1ccc(-c2ccc3nnc(COCc4ccc(Cl)cc4Cl)n3c2)cc1` [BHN-250, 3-{[(2,4-dichlorobenzyl)oxy]methyl}-6-[4-(trifluoromethoxy)phenyl][1,2,4]triazolo[4,3-a]pyridine], the inhibition at 1 µM was 79.1%. On to `FC(F)(F)COc1ccc(-c2ccc3nnc(C(F)(F)F)n3c2)cn1` [BHN-92, 6-[6-(2,2,2-trifluoroethoxy)pyridin-3-yl]-3-(trifluoromethyl)[1,2,4]triazolo[4,3-a]pyridine], for which the inhibition at 1 µM stood at 63.5% and the inhibition at 10 µM is 76.3%. `Fc1ccccc1Oc1ccc(-c2ccc3nnc(C(F)(F)F)n3c2)cc1` [BHN-112, 6-[4-(2-fluorophenoxy)phenyl]-3-(trifluoromethyl)[1,2,4]triazolo[4,3-a]pyridine]: the inhibition at 1 µM is 32.9%. Regarding `FC(F)(F)c1nnc2ccc(-c3ccc(OC4CC4)nc3)cn12` [BHN-180, 6-[6-(cyclopropyloxy)pyridin-3-yl]-3-(trifluoromethyl)[1,2,4]triazolo[4,3-a]pyridine], the inhibition at 1 µM was determined as 21.1%. On to `N#CC1(c2ccc(-c3ccc4nnc(C(F)(F)F)n4c3)cc2)CCCC1` [BHN-135, 1-{4-[3-(trifluoromethyl)[1,2,4]triazolo[4,3-a]pyridin-6-yl]phenyl}cyclopentanecarbonitrile], for which the inhibition at 1 µM is 49.2%. In the case of `CC(C)c1nnc2ccc(-c3ccc(Oc4ccccc4)cc3)nn12` [BHN-32, 6-(4-phenoxyphenyl)-3-(propan-2-yl)[1,2,4]triazolo[4,3-b]pyridazine], the inhibition at 1 µM came out at 63.4% and the inhibition at 10 µM came to 83.4%. With `CC(OCc1ccccn1)c1nnc2ccc(-c3ccc(OC(F)(F)F)cc3)cn12` (stereo not shown) [BHN-255, 3-[1-(pyridin-2-ylmethoxy)ethyl]-6-[4-(trifluoromethoxy)phenyl][1,2,4]triazolo[4,3-a]pyridine], the inhibition at 1 µM was found to be 22.8%. On the same count and under the same terms, the value for `FC(F)(F)Oc1ccc(-c2ccc3nnc(C(F)(F)OCCC(c4ccccc4)c4ccccc4)n3c2)cc1` [BHN-303, 3-[(3,3-diphenylpropoxy)(difluoro)methyl]-6-[4-(trifluoromethoxy)phenyl][1,2,4]triazolo[4,3-a]pyridine] was 51%. As to `Cc1cc(-c2ccc(Oc3ccccc3)cc2)cn2ncnc12` [BHN-349, 8-methyl-6-(4-phenoxyphenyl)[1,2,4]triazolo[1,5-a]pyridine], the inhibition at 10 µM amounted to 65.1%.

Consider `Cc1c(-c2ccc(OC(F)(F)F)cc2)ccc2nnnn12` [BHN-269, 5-methyl-6-[4-(trifluoromethoxy)phenyl]tetrazolo[1,5-a]pyridine], for which the inhibition at 1 µM was 44.7%. On the same count and under the same terms, the value for `OCc1nc(C(F)(F)F)n2cc(-c3ccc(OC(F)(F)F)cc3)ccc12` [BHN-125, {6-[4-(trifluoromethoxy)phenyl]-3-(trifluoromethyl)imidazo[1,5-a]pyridin-1-yl}methanol] was 33.9%; that for `CS(=O)(=O)NCC(F)(F)c1nnc2ccc(-c3ccc(OC(F)(F)F)cc3)cn12` [BHN-175, N-(2,2-difluoro-2-{6-[4-(trifluoromethoxy)phenyl][1,2,4]triazolo[4,3-a]pyridin-3-yl}ethyl)methanesulfonamide] was 16.3%; that for `N#CCOCC(F)(F)c1nnc2ccc(-c3ccc(OC(F)(F)F)cc3)cn12` [BHN-156, (2,2-difluoro-2-{6-[4-(trifluoromethoxy)phenyl][1,2,4]triazolo[4,3-a]pyridin-3-yl}ethoxy)acetonitrile] was 22.3%. Still for that read-out and setting: the value for `OC(COCC(F)(F)c1nnc2ccc(-c3ccc(OC(F)(F)F)cc3)cn12)COc1ccccc1Cl` (stereo not shown) [BHN-267, 1-(2-chlorophenoxy)-3-(2,2-difluoro-2-{6-[4-(trifluoromethoxy)phenyl][1,2,4]triazolo[4,3-a]pyridin-3-yl}ethoxy)propan-2-ol] was 26.5%; that for `FC(F)(F)c1ccc(C#Cc2ccc3nnc(Oc4ccccc4)n3c2)cc1` [BHN-304, 3-phenoxy-6-{[4-(trifluoromethyl)phenyl]ethynyl}[1,2,4]triazolo[4,3-a]pyridine] was 28.2%; that for `Fc1cc(-c2ccc3nnc(C(F)(F)F)n3c2)ccc1OC(F)(F)F` [BHN-146, 6-[3-fluoro-4-(trifluoromethoxy)phenyl]-3-(trifluoromethyl)[1,2,4]triazolo[4,3-a]pyridine] was 58.2%. The same measure, in the same setting: with `N#CC1(c2ccc(-c3ccc4nnc(C(F)(F)F)n4c3)cc2)CCOCC1` [BHN-254, 4-{4-[3-(trifluoromethyl)[1,2,4]triazolo[4,3-a]pyridin-6-yl]phenyl}tetrahydro-2H-pyran-4-carbonitrile] the figure was 24.6%; with `FC(F)(F)Oc1ccc(-c2ccc3nnc(C(F)(F)OCc4ccccc4)n3c2)cc1` [BHN-148, 3-[(benzyloxy)(difluoro)methyl]-6-[4-(trifluoromethoxy)phenyl][1,2,4]triazolo[4,3-a]pyridine], 71.7%.

For the origin of these results see patent publication US8952034B2, “Fused heterocyclic compounds as ion channel modulators” (Gilead Sciences, Inc., priority 2009, dated 2015).
